Patent US7524853B2 (Solvay Pharmaceuticals B.V., priority 2003, dated 2009)

Legend:
Format in all cases: cell-based
[1] = molecular target: T1, 17β-hydroxysteroid dehydrogenase type 1 (17β-HSD type 1) (Homo sapiens, UniProt P14061); assay: Inhibition of 17β-HSD type 1 in MCF-7 cells stably expressing the isoenzyme (tritium labeled estrone conversion, HPLC); settings: MCF7, MCF-7 cells expressing 17β-HSD type 1, 2 nM tritium labeled estrone; for inhibition at 1 µM: 1 μM test compound, read-out: % Inhibition HSD1 1 μM; for inhibition at 10 µM: 10 μM test compound, read-out: % Inhibition HSD1 10 μM
T1 construct: expressed in transfected cells; host or cells: MCF-7
T1 sequence (P14061 1-328): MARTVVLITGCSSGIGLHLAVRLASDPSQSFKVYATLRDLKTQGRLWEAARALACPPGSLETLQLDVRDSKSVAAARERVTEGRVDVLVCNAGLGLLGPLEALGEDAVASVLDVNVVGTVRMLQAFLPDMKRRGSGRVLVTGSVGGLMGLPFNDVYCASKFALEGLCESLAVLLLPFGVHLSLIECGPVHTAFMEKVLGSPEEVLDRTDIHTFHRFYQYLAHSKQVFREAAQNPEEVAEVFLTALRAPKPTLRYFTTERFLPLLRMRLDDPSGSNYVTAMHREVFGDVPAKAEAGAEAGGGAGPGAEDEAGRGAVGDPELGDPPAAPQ
Outline: (§1)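 Whole-cell MCF-7 lines, one isoenzyme each; substrate 2 nM ³H-estrone (type 1), ³H-estradiol (type 2) or ³H-androstenedione (type 3) in growth medium + compound at two concentrations. TCA stop, HPLC-radioflow read; % inhibition from reduced conversion vs no-compound control.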

[2] = molecular target: T2, 17β-hydroxysteroid dehydrogenase type 2 (17β-HSD type 2) (Homo sapiens, UniProt P37059); assay: Inhibition of 17β-HSD type 2 in MCF-7 cells stably expressing the isoenzyme (tritium labeled estradiol conversion, HPLC); settings: MCF7, MCF-7 cells expressing 17β-HSD type 2, 2 nM tritium labeled estradiol; for inhibition at 1 µM: 1 μM test compound, read-out: % Inhibition HSD2 1 μM; for inhibition at 10 µM: 10 μM test compound, read-out: % Inhibition HSD2 10 μM
T2 construct: expressed in transfected cells; host or cells: MCF-7
T2 sequence (P37059 1-387): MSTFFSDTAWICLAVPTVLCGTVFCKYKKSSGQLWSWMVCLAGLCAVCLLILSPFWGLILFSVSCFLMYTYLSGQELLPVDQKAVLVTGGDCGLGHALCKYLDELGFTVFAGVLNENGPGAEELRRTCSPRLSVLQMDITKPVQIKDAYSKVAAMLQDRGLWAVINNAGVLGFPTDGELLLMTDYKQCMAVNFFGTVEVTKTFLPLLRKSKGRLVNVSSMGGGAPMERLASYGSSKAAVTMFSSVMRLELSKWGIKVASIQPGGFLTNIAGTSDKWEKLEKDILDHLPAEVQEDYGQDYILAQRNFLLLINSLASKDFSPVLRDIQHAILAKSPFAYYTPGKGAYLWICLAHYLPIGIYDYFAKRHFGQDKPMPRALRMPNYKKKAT
Outline: as §1

[3] = molecular target: T3, 17β-hydroxysteroid dehydrogenase type 3 (17β-HSD type 3) (Homo sapiens, UniProt P37058); assay: Inhibition of 17β-HSD type 3 in MCF-7 cells stably expressing the isoenzyme (tritium labeled androstenedione conversion, HPLC); settings: MCF7, MCF-7 cells expressing 17β-HSD type 3, 2 nM tritium labeled androstenedione; for inhibition at 1 µM: 1 μM test compound, read-out: % Inhibition HSD3 1 μM; for inhibition at 10 µM: 10 μM test compound, read-out: % Inhibition HSD3 10 μM
T3 construct: expressed in transfected cells; host or cells: MCF-7
T3 sequence (P37058 1-310): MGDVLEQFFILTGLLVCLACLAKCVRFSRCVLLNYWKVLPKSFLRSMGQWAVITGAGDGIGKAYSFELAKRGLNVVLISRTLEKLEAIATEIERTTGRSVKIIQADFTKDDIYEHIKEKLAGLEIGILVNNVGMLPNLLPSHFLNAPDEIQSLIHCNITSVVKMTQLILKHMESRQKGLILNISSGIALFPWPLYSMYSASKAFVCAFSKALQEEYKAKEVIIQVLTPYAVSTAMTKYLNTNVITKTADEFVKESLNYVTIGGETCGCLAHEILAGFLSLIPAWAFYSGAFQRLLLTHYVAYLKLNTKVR
Outline: as §1

Row | inhibition at 1 µM [1] | inhibition at 10 µM [1] | inhibition at 1 µM [2] | inhibition at 10 µM [2] | inhibition at 1 µM [3] | inhibition at 10 µM [3] | Structure (SMILES)
1 | 18% | 28.6% | 12.7% | 21% | 9.8% | 35% | CCCCn1c(-c2cc(OC)c(OC)c(OC)c2)nc2sc3c(c2c1=O)CC(C)CC3=O (stereo not drawn) [No. 692, 3-Butyl-6-methyl-2-(3,4,5-trimethoxyphenyl)-6,7-dihydro-3H,5H-benzo[4,5]thieno[2,3-d]pyrimidin-4,8-dione]
2 | 15% | 5.7% | 18.1% | 18.2% | 5.2% | 16.8% | CCCCn1c(-c2cc(OC)c(OC)c(OC)c2Br)nc2sc3c(c2c1=O)CC(C)C(Br)C3=O (stereo not drawn) [No. 693, 3-Butyl-7-bromo-6-methyl-2-(2-bromo-3,4,5-trimethoxyphenyl)-6,7-dihydro-3H-benzo[4,5]thieno[2,3-d]pyrimidin-4,8-dione]
3 | 12.1% | 10.9% | 6.2% | 15.8% | 5.8% | 21.1% | CCCCn1c(-c2cc(OC)c(OC)c(OC)c2Br)nc2sc3c(O)cc(C)cc3c2c1=O [No. 694, 3-Butyl-2-(2-bromo-3,4,5-trimethoxyphenyl)-8-hydroxy-6-methyl-3H-benzo[4,5]thieno[2,3-d]pyrimidin-4-one]
4 | 5.9% | 7.3% | 16.1% | 19.6% | 7.4% | 8.5% | CCCCn1c(-c2cc(OC)c(OC)c(O)c2Br)nc2sc3c(O)c(Br)c(C)cc3c2c1=O [No. 699, 7-Bromo-2-(2-bromo-3-hydroxy4,5-dimethoxyphenyl)-3-butyl-8-hydroxy-6-methyl-3H-benzo[4,5]thieno[2,3-d]pyrimidin-4-one]
